Source: patent US6552235B2, “Process for the preparation of cyclohexanol” (Asahi Kasei Kabushiki Kaisha, priority 1999, dated 2003)
Read-outs that look alike come from different tables or passages of the source.

Assays:
[1] = Liquid-liquid distribution coefficient of cyclohexene at 120° C. and solvent effect index; type: physicochemical; details: for Solvent effect index: distribution coefficient in solvent-free system/in solvent-containing system; for Distribution coefficient of cyclohexene: molar fraction in oil phase/aqueous phase, cyclohexene/cyclohexanol/organic solvent/water 56.7/13.3/30/100 by weight
Method: The organic solvent used in the present invention has a solvent effect index (defined below) of not less than 1.5. The solvent effect index in the present invention is defined to be a ratio of a distribution coefficient of cyclohexene in the absence of solvent at 120° C. and a distribution coefficient of cyclohexene in a solvent-containing system at 120° C. (distribution coefficient of cyclohexene in the absence of solvent/distribution coefficient of cyclohexene in a solvent-containing system), and it indicates an effect to make predominate the distribution of cyclohexene into an aqueous solution due to the presence of the organic solvent.
Detailedly, the solvent effect index in the present invention is obtained in the following manner. Cyclohexene/cyclohexanol/organic solvent/water are charged at a weight ratio of 56.7/13.3/30/100, and the distribution coefficient of cyclohexene (molar fraction of cyclohexene in oil phase/molar fraction of cyclohexene in aqueous phase) is obtained from the liquid composition of both phases of the oil phase and the aqueous phase in an equilibrium state kept at 120° C. The ratio of the resulting distribution coefficient of cyclohexene and the distribution coefficient of cyclohexene in a solvent-free system (measured at 120° C. by charging cyclohexene/cyclohexanol/water at a weight ratio of 56.7/13.3/100), namely, the ratio of distribution coefficient in solvent-free system/distribution coefficient in solvent-containing system, is the solvent effect index in the present invention.
Here, the distribution coefficient of cyclohexene is measured by the following method. That is, an oil and water at the above weight ratio are charged in a pressure container under a nitrogen pressure, and sufficiently stirred and mixed at a rising temperature of 120° C., followed by reducing the stirring speed and leaving at rest for a time long enough to reach an equilibrium state. Thereafter, each of the oil phase and the aqueous phase is sampled in a solvent such as 1,4-dioxane, and the compositions of both the oil phase and the aqueous phase are obtained from analysis by gas chromatography and a Karl Fischer moisture meter. Thus, the distribution coefficient of cyclohexene is measured.

[2] = Solvent conversion rate in batch-wise hydration reaction of cyclohexene (H-ZSM-5 zeolite-A); type: physicochemical; details: 120° C.; for Solvent convertion rate: H-ZSM-5-A, 20 g solvent
Method: The organic solvent used as a reaction solvent in the method of the present invention has a conversion rate of not more than 3% under the hydration reaction conditions of cyclohexene. The conversion rate of the organic solvent in the present invention is a conversion rate in the reaction of the organic solvent per se or the organic solvent with cyclohexene or cyclohexanol per 1 hour of batch reaction at the reaction temperature at which the hydration reaction of cyclohexene is carried out. In industrial working of the present invention, the solvent used for the reaction is separated from the product cyclohexanol and circulated for reuse.
30 g of the resulting H-ZSM-5 zeolite-A catalyst and 81 g of water were charged in a glass autoclave A and heated to 120° C. with stirring under application of a nitrogen pressure of 0.5 MPa. Separately, 61 g of cyclohexene and 20 g of isophorone were charged in a glass autoclave B and heated to 120° C. under application of a nitrogen pressure of 0.6 MPa. Thereafter, the cyclohexene/isophorone mixed liquid was sent under pressure from the glass autoclave B to the glass autoclave A, and the reaction was started. After the reaction for 1 hour, the stirring was stopped, and the oil phase was sampled and analyzed by gas chromatography. At the sampling, the reaction mixture separated to two phases of oil phase and aqueous phase immediately after stopping of stirring. Yield and selectivity of cyclohexanol were as follows.
The hydration reaction of cyclohexene was carried out in the same manner as in Example 1, except that ethylene glycol monophenyl ether, phenethyl alcohol and 3,3,5-trimethylcyclohexanone were respectively used as the reaction solvents. The results of the reactions are shown in Table 1, and characteristics of the organic solvents used in this Example are shown in Table 2.
The reaction was carried out in the same manner as in Example 1, except that benzyl alcohol was used as the solvent. Yield of cyclohexanol after each reaction time was as follows.

[3] = cited from earlier work
[4] = Solvent conversion rate in continuous fixed-bed flowing hydration reaction of cyclohexene; type: physicochemical; details: fixed-bed flow; for Solvent conversion rate: 30 wt % solvent, 124-134° C., 2 MPa
Method: A continuous fixed-bed flowing reaction test of a cyclohexene hydration reaction was conducted under the following conditions using ethylene glycol monophenyl ether (EGMPE) as a reaction solvent. As a reaction apparatus, a stainless steel reaction vessel of 26.5 mm in internal diameter provided with a heating medium jacket was used. In the upper part of the reaction vessel, there were provided feed openings for water and oil, and in the lower part of the reaction vessel, oil and water in the mixed state were led to a reaction mixture storage tank through a pressure regulating valve, and oil and water were separated from each other in the reaction mixture storage tank. ZSM-5 zeolite (silica/alumina molar ratio=50) manufactured by Engelhard Co., Ltd. with addition of 20 wt % of an alumina binder was extrusion molded to a size of 1/16 inch in external diameter and 5 mm in length, and this was used as the catalyst. The height of the catalyst layer was 240 mm. The continuous reaction was carried out by an oil-water falling parallel flow sealing reaction method under the following conditions.
The oil phase discharged into the reaction mixture storage tank was analyzed by gas chromatography to obtain the results of the reaction. At the time of starting of the reaction, only cyclohexene was fed, and after a lapse of 20 hours from the starting of the reaction, the starting material was changed to a mixed liquid of cyclohexene/ethylene glycol monophenyl ether=70/30 (weight ratio), and thereafter the reaction was continued for 150 hours.

[5] = phenol-containing system, 120° C.; solvent-free system 3818; cited from earlier work

Structure (SMILES) | Solvent effect index [1] | Distribution coefficient of cyclohexene [1] | Solvent convertion rate ([2]; 1 hour) [%] | Solubility in water (25° C.) [3] [g/100 ml] | further results
CC1CC(=O)CC(C)(C)C1 (centres unmarked) [3,3,5-Trimethylcyclohexanone] | 2.14 | 1929 | 0.00 | 0.80 | 
OCCOc1ccccc1 [Ethylene glycol monophenyl ether, ethylene glycol monophenyl ether] | 2.46 | 1681 | 0.70 | 2.70 | Solvent conversion rate ([4]; reaction time 25 Hr): 0.84%; Solvent conversion rate ([4]; reaction time 80 Hr): 0.63%; Solvent conversion rate ([4]; reaction time 150 Hr): 0.42%; conversion rate to ethylene glycol cyclohexylphenyl ether ([4]; under the hydration reaction conditions): less than 1%
CC1=CC(=O)CC(C)(C)C1 [Isophorone] | 2.19 | 1884 | 0.00 | 1.2 | change of the solvent in the hydration reaction ([2]; H-ZSM-5 zeolite-A, 1 hour): showed no change; Solubility in water (25° C.) ([3]; listed as IPN): 1.20 g/100 ml
OCCc1ccccc1 [Phenethyl alcohol] | 2.24 | 1846 | 0.35 | 2.00 | 
OCc1ccccc1 [benzyl alcohol, reference compound] |  |  |  |  | conversion rate of the reaction solvent to dibenzyl ether ([2]; H-ZSM-5 zeolite-A, after 1 hour): 11.4%; conversion rate of the reaction solvent to dibenzyl ether ([2]; H-ZSM-5 zeolite-A, after 2 hours): 16.0%
O=C1CCCCC1 [cyclohexanone, reference compound] |  |  |  |  | solubility in water [3]: 8.7%
Oc1ccccc1 [phenol] |  |  |  |  | cyclohexene distribution coefficient (concentration in oil phase mol %/aqueous phase mol %) [5]: 680
